Laboratory results from ChEMBL document CHEMBL6121041, “Design and synthesis of isatin derivative payloaded peptide-drug conjugate as tubulin inhibitor against colorectal cancer” (Eur J Med Chem, 2025).
Calls of active or inactive are those of the source. No cut-off for these calls is given here.

Columns and labels:
[1] = Cytotoxicity against HUVEC cells assessed as reduction in cell viability incubated for 48 hrs by MTT assay; format: toxicity, cell-based; conditions: human
[2] = Cytotoxicity against HK-2 cells assessed as reduction in cell viability incubated for 48 hrs by MTT assay; format: toxicity, cell-based; conditions: human
[3] = system: HCT-116; assay: Antiproliferative activity against human HCT-116 cells assessed as reduction in cell viability incubated for 48 hrs by MTT assay; format: functional, cell-based; conditions: HCT-116, 48 h
[4] = system: 786-0; assay: Antiproliferative activity against human 786-0 cells assessed as reduction in cell viability incubated for 48 hrs by MTT assay; format: functional, cell-based; conditions: 786-0, 48 h
[5] = system: HCC827; assay: Antiproliferative activity against human HCC827 cells assessed as reduction in cell viability incubated for 48 hrs by MTT assay; format: functional, cell-based; conditions: HCC827, 48 h
[6] = system: K562; assay: Antiproliferative activity against human K562 cells assessed as reduction in cell viability incubated for 48 hrs by MTT assay; format: functional, cell-based; conditions: K562, 48 h
[7] = system: MGC-803; assay: Antiproliferative activity against human MGC-803 cells assessed as reduction in cell viability incubated for 48 hrs by MTT assay; format: functional, cell-based; conditions: MGC-803, 48 h
[8] = system: HepG2; assay: Antiproliferative activity against human HepG2 cells assessed as reduction in cell viability incubated for 48 hrs by MTT assay; format: functional, cell-based; conditions: HepG2, 48 h
[9] = system: HCT-116; assay: Inhibition of beta-tubulin expression in human HCT-116 cells at 0.2 to 0.8 uM incubated for 24 hrs by Western blot analysis; format: functional, cell-based; conditions: dose 0.2-0.8 µM
[10] = system: HCT-116; assay: Induction of apoptosis in human HCT-116 cells assessed as increase in caspase-3 cleavage level at 0.2 to 0.8 uM incubated for 24 hrs by Western blot analysis; format: functional, cell-based; conditions: dose 0.2-0.8 µM
[11] = system: HCT-116; assay: Induction of apoptosis in human HCT-116 cells assessed as increase in PARP cleavage at 0.2 to 0.8 uM incubated for 24 hrs by Western blot analysis; format: functional, cell-based; conditions: dose 0.2-0.8 µM
[12] = system: HCT-116; assay: Induction of apoptosis in human HCT-116 cells assessed as downregulation of Bcl-2 protein at 0.2 to 0.8 uM measured within 24 hrs by Western blot analysis; format: functional, cell-based; conditions: dose 0.2-0.8 µM
[13] = system: HCT-116; assay: Induction of apoptosis in human HCT-116 cells assessed as upregulation of Bax protein at 0.2 to 0.8 uM measured within 24 hrs by Western blot analysis; format: functional, cell-based; conditions: dose 0.2-0.8 µM
[14] = system: HCT-116; assay: Cell cycle arrest in human HCT-116 cells assessed as accumulation of cells at G2/M phase by measuring decrease in CDK1 expression at 0.2 to 0.8 uM incubated for 24 hrs by Western blot analysis; format: functional, cell-based; conditions: dose 0.2-0.8 µM
[15] = system: HCT-116; assay: Cell cycle arrest in human HCT-116 cells assessed as accumulation of cells at G2/M phase by measuring increase in cyclin B1 expression at 0.2 to 0.8 uM incubated for 24 hrs by Western blot analysis; format: functional, cell-based; conditions: dose 0.2-0.8 µM
[16] = system: HCT-116; assay: Cell cycle arrest in human HCT-116 cells assessed as increase in p21 expression at 0.2 to 0.8 uM incubated for 24 hrs by Western blot analysis; format: functional, cell-based; conditions: dose 0.2-0.8 µM
[17] = system: HCT-116; assay: Cell cycle arrest in human HCT-116 cells assessed as increase in p53 expression at 0.2 to 0.8 uM incubated for 24 hrs by Western blot analysis; format: functional, cell-based; conditions: dose 0.2-0.8 µM
[18] = system: HCT-116; assay: Inhibition of colony formation in human HCT-116 cells at 0.4 to 0.8 uM measured after 10 days by crystal violet staining based inverted microscopic analysis; format: functional, cell-based; conditions: dose 0.4-0.8 µM, time 10.0 day
[19] = system: HCT-116; assay: Inhibition of wound closure in human HCT-116 cells at 0.4 uM measured after 48 hrs by wound healing assay; format: functional, cell-based
[20] = system: HCT-116; assay: Induction of apoptosis in human HCT-116 cells assessed as cell fragmentation at 0.4 to 0.8 microM measured after 24 hrs by microscopic analysis; format: functional, cell-based; conditions: dose 0.4-0.8 µM
[21] = system: HCT-116; assay: Induction of apoptosis in human HCT-116 cells assessed as morphological changes at 0.4 to 0.8 microM measured after 24 hrs by microscopic analysis; format: functional, cell-based; conditions: dose 0.4-0.8 µM
[22] = system: HCT-116; assay: Induction of apoptosis in human HCT-116 cells assessed as morphological changes at 0.4 to 0.8 microM measured after 48 hrs by microscopic analysis; format: functional, cell-based; conditions: dose 0.4-0.8 µM
[23] = system: HCT-116; assay: Induction of apoptosis in human HCT-116 cells at 0.4 to 0.8 uM incubated for 24 hrs by Annexin V-FITC/PI staining based flow cytometric analysis; format: functional, cell-based; conditions: dose 0.4-0.8 µM
[24] = system: HCT-116; assay: Cell cycle arrest in human HCT-116 cells assessed as accumulation of cells at G2/M phase at 0.4 to 0.8 uM incubated for 24 hrs by PI staining based flow cytometric analysis; format: functional; conditions: dose 0.4-0.8 µM
[25] = system: HCT-116; assay: Induction of apoptosis in human HCT-116 cells assessed as increase in caspase-3 activation level at 0.8 uM measured after 24 hrs by Western blot analysis; format: functional, cell-based
[26] = system: HCT-116; assay: Induction of apoptosis in human HCT-116 cells assessed as increase in PARP activation level at 0.8 uM measured after 24 hrs by Western blot analysis; format: functional, cell-based
[27] = system: HCT-116; assay: Induction of apoptosis in human HCT-116 cells assessed as downregulation of Bcl-2 protein at 0.8 uM measured after 24 hrs by Western blot analysis; format: functional, cell-based
[28] = system: HCT-116; assay: Induction of apoptosis in human HCT-116 cells assessed as upregulation of Bax protein at 0.8 uM measured after 24 hrs by Western blot analysis; format: functional, cell-based
[29] = system: HCT-116; assay: Cell cycle arrest in human HCT-116 cells assessed as decrease in CDK1 expression at 0.8 uM incubated for 24 hrs by Western blot analysis; format: functional, cell-based
[30] = system: HCT-116; assay: Cell cycle arrest in human HCT-116 cells assessed as increase in cyclin B1 expression at 0.8 uM incubated for 24 hrs by Western blot analysis; format: functional, cell-based
[31] = system: HCT-116; assay: Cell cycle arrest in human HCT-116 cells assessed as increase in p21 expression at 0.8 uM incubated for 24 hrs by Western blot analysis; format: functional, cell-based
[32] = system: HCT-116; assay: Cell cycle arrest in human HCT-116 cells assessed as increase in p53 expression at 0.8 uM incubated for 24 hrs by Western blot analysis; format: functional, cell-based
[33] = system: HCT-116; assay: Inhibition of beta-tubulin expression in human HCT-116 cells at 0.8 uM incubated for 24 hrs by Western blot analysis; format: functional, cell-based
[34] = Toxicity in SPF-grade Balb/c nude mouse xenografted with human HCT-116 cells assessed as average body weight at 12 mg/kg, ip measured after 10 days; format: organism-based; conditions: in vivo, 240 h, time 10 day
[35] = system: HCT-116; assay: Antitumor activity against human HCT-116 cells xenografted in SPF-grade Balb/c nude mouse model assessed as reduction in tumor size at 12 mg/kg, ip administered daily for 11 days by photographic analysis; format: functional, organism-based; conditions: time 11.0 day
[36] = system: HCT-116; assay: Antitumor activity against human HCT-116 cells xenografted in SPF-grade Balb/c nude mouse model assessed as tumor growth inhibition at 12 mg/kg, ip administered daily for 11 days relative to control; format: functional; conditions: HCT-116, 264 h, time 11 day, read-out: TGI
[37] = system: HCT-116; assay: Antitumor activity against human HCT-116 cells xenografted in SPF-grade Balb/c nude mouse model assessed as tumor growth inhibition at 45.17 mg/kg, ip administered daily for 11 days relative to control; format: functional; conditions: HCT-116, 264 h, time 11 day, read-out: TGI
[38] = system: HCT-116; assay: Antitumor activity against human HCT-116 cells xenografted in SPF-grade Balb/c nude mouse model assessed as inhibition of tumor cell growth at 12 mg/kg, ip administered daily for 11 days by H and E staining based analysis; format: functional, organism-based; conditions: time 11.0 day

Q: For `COc1ccc(CN2C(=O)C(=O)c3cc(-c4ccc(O)cc4)ccc32)cc1`, which IC50 at 48 h [1] is on record?
A: 18.1 µM

Q: And the IC50 at 48 h [2]?
A: 13.9 µM

Q: What about the IC50 [3] of the same compound?
A: 0.33 µM

Q: What about the IC50 [4] of the same compound?
A: 26.6 µM

Q: What about the IC50 [5] of the same compound?
A: 10.1 µM

Q: And the IC50 [6]?
A: 0.8 µM

Q: What about the IC50 [7] of the same compound?
A: 20.6 µM

Q: What about the IC50 [8] of the same compound?
A: > 100 µM

Q: And the inhibition [9]?
A: Active

Q: What about the Activity [10] of the same compound?
A: Active

Q: What about the Activity [11] of the same compound?
A: Active

Q: What about the Activity [12] of the same compound?
A: Active; Activation Of Intrinsic Apoptotic Pathway Observed

Q: And the Activity [13]?
A: Active; Activation Of Intrinsic Apoptotic Pathway Observed

Q: What about the Activity [14] of the same compound?
A: Active

Q: What about the Activity [15] of the same compound?
A: Active

Q: And the Activity [16]?
A: Active; Activation Of P53-Medisted Signaling Observed

Q: What about the Activity [17] of the same compound?
A: Active; Activation Of P53-Medisted Signaling Observed

Q: What about the inhibition [18] of the same compound?
A: Active

Q: And the inhibition [19]?
A: Active

Q: What about the Activity [20] of the same compound?
A: Active

Q: And the Activity [21]?
A: Active

Q: And the Activity [22]?
A: Active; More Evident Apoptotic State Observed

Q: And the Activity [23]?
A: Active

Q: What about the Activity [24] of the same compound?
A: Active

Q: What about the Activity [25] of the same compound?
A: Active

Q: What about the Activity [26] of the same compound?
A: Active

Q: And the Activity [27]?
A: Active

Q: What about the Activity [28] of the same compound?
A: Active

Q: What about the Activity [29] of the same compound?
A: Active

Q: What about the Activity [30] of the same compound?
A: Active

Q: And the Activity [31]?
A: Active

Q: And the Activity [32]?
A: Active

Q: And the inhibition [33]?
A: Active

Q: What about the Activity [34] of the same compound?
A: ~ 10 g

Q: What about the Activity [35] of the same compound?
A: Active

Q: And the inhibition in vivo at 12 mg/kg [36]?
A: 49%

Q: And the inhibition in vivo at 45.17 mg/kg [37]?
A: 61%

Q: And the Activity [38]?
A: Active
